Columns and labels:
[1] = system: rats exposed to acute altitude hypoxia; test: Endothelial function (serum endothelin-1, nitric oxide) in rats exposed to acute altitude hypoxia; assay type: in vivo, Wistar rat
Source text: This method uses nitrate reductase specificity reduce NO^3− to NO^2−, and then determine the level of its concentration by displaying shades of color. Operate according to the kit instructions, measure the absorbance of each tube at a wavelength of 550 nm, and then calculate the content of nitric oxide of the sample to be tested according to the formula. To the coated microwells pre-coated with rat endothelin (endothelin-1) capture antibody, add in sequence specimens, standards, and HRP-labeled detection antibody, and then incubate and wash thoroughly. Use a substrate TMB for color development. TMB is converted into blue under the catalysis of peroxidase and converted into the final yellow color under the action of acid. The color intensity is positively correlated with the rat endothelin (endothelin-1) in the sample.

[2] = system: rats with acute altitude hypoxia injury; test: Oxidative stress indexes of rats with acute altitude hypoxia injury; assay type: in vivo, Wistar rat
Source text: Operate according to the instructions, and then measure the absorbance value of each tube, and afterwards calculate the content of malondialdehyde in the sample to be tested according to the formula. […] The latter oxidizes hydroxylamine to form nitrite. It appears purplish red under the action of chromogenic agent. Measure its absorbance by a visible light spectrophotometer. When the measured sample contains superoxide dismutase, it has specific inhibitory effect on superoxide anion free radicals, make formed nitrite reduced. […] The superoxide dismutase activity in the tested sample can be calculated by formula calculation. […] The latter can form a stable complex with phenanthrophins and measure its antioxidant capacity by colorimetry. Operate according to the kit instructions, measure the absorbance of each tube at a wavelength of 520 nm, and then calculate the total antioxidant capacity in the sample to be tested according to the formula.

[3] = system: mice exposed to high altitude hypoxia; test: Exhaustive swimming experiment in mice exposed to high altitude hypoxia (6000 m); assay type: in vivo, Kunming mice; conditions: for Exhausted swimming survival time: 7 days
Source text: Select healthy male Kunming mice weight 18-22 g.

[4] = Body weight of mice before closed hypoxia tolerance test
[5] = female rats, hypoxia, 1.83 mg/kg
[6] = female rats, hypoxia, 3.66 mg/kg
[7] = female rats, hypoxia, 7.31 mg/kg
[8] = female rats, hypoxia, 14.63 mg/kg
[9] = female rats, normoxia, 3.66 mg/kg
[10] = male rats, hypoxia, 14.63 mg/kg
[11] = female rats, hypoxia, 0.91 mg/kg

For `O=C(O)c1cc(C(=O)O)c2c(n1)C(=O)C(=O)c1cc(C(=O)O)[nH]c1-2` [PQQ, pyrroloquinoline quinone], the Nitric oxide [1, 5] was 4.47 ± 1.35 µmol/L, the Endothelin-1 [1, 6] was 68.58 ± 5.38 ng/mL and the Nitric oxide [1, 6] was 6.19 ± 2.06 µmol/L. For the same compound, the Endothelin-1 [1, 7] was 65.44 ± 14.06 ng/mL, the Nitric oxide [1, 7] was 5.92 ± 2.31 µmol/L and the Endothelin-1 [1, 8] was 65.26 ± 6.60 ng/mL. For the same compound, the Nitric oxide [1, 8] was 4.62 ± 3.25 µmol/L, the “effect on nitric oxide content” value ([1]; female rats, normoxia) was “no significant effects” and the “effect on serum endothelin-1 content” value ([1]; female rats, normoxia) was “can reduce”. For the same compound, the Endothelin-1 [1, 9] was 47.50 ± 7.31 ng/mL, the Nitric oxide [1, 9] was 5.01 ± 1.57 µmol/L and the “effect on serum endothelin-1 and nitric oxide” value ([1]; hypoxia exposed male rats) was “no significant effects”. It also gave an Endothelin-1 ([1]; male rats, hypoxia, 0.91 mg/kg) of 45.35 ± 4.24 ng/mL, a Nitric oxide ([1]; male rats, hypoxia, 0.91 mg/kg) of 5.28 ± 0.71 µmol/L and an Endothelin-1 ([1]; male rats, hypoxia, 1.83 mg/kg) of 42.59 ± 1.45 ng/mL. It also gave a Nitric oxide ([1]; male rats, hypoxia, 1.83 mg/kg) of 5.15 ± 2.11 µmol/L, an Endothelin-1 ([1]; male rats, hypoxia, 3.66 mg/kg) of 48.14 ± 3.13 ng/mL and a Nitric oxide ([1]; male rats, hypoxia, 3.66 mg/kg) of 5.35 ± 1.35 µmol/L. It also gave an Endothelin-1 ([1]; male rats, hypoxia, 7.31 mg/kg) of 43.60 ± 0.94 ng/mL, a Nitric oxide ([1]; male rats, hypoxia, 7.31 mg/kg) of 6.20 ± 2.49 µmol/L and an Endothelin-1 [1, 10] of 42.45 ± 3.84 ng/mL. For the same compound, the Nitric oxide [1, 10] was 6.46 ± 1.44 µmol/L, the “Endo Dialdehyde” value [2, 11] was 15.07 ± 1.91 nmol/L and the Superoxide dismutase [2, 11] was 66.11 ± 4.18 U/ml. The Total antioxidants [2, 11] was 10.52 ± 1.08 U/ml, the “Endo Dialdehyde” value [2, 5] was 13.96 ± 1.33 nmol/L and the Superoxide dismutase [2, 5] was 60.79 ± 2.56 U/ml. For the same compound, the Total antioxidants [2, 5] was 10.06 ± 0.77 U/ml, the “Endo Dialdehyde” value [2, 6] was 13.73 ± 0.27 nmol/L and the Superoxide dismutase [2, 6] was 56.82 ± 3.80 U/ml. The Total antioxidants [2, 6] was 10.84 ± 0.47 U/ml, the “Endo Dialdehyde” value [2, 7] was 14.14 ± 2.68 nmol/L and the Superoxide dismutase [2, 7] was 56.65 ± 2.97 U/ml. The Total antioxidants [2, 7] was 10.37 ± 0.75 U/ml, the “Endo Dialdehyde” value [2, 8] was 14.81 ± 1.37 nmol/L and the Superoxide dismutase [2, 8] was 56.16 ± 3.64 U/ml. The Total antioxidants [2, 8] was 10.59 ± 1.65 U/ml, the effect on malondialdehyde ([2]; female rats, normoxia) was “can slightly increase” and the “effect on serum superoxide dismutase and total antioxidants” value ([2]; female rats, normoxia) was “no significant effects”. For the same compound, the “Endo Dialdehyde” value [2, 9] was 14.39 ± 0.85 nmol/L, the Superoxide dismutase [2, 9] was 52.21 ± 1.23 U/ml and the Total antioxidants [2, 9] was 11.28 ± 0.83 U/ml. For the same compound, the “effect on serum superoxide dismutase activity” value ([2]; hypoxia exposed female rats) was “can increase”, the “effect on serum total antioxidants and malondialdehyde” value ([2]; hypoxia exposed female rats) was “no significant effects” and the “effect on serum superoxide dismutase activity” value ([2]; hypoxia exposed male rats) was “can increase”. The “effect on serum total antioxidants and malondialdehyde” value ([2]; male rats) was “no significant effect”, the Malonaldehyde ([2]; male rats, hypoxia, 0.91 mg/kg) was 2.79 ± 0.62 nmol/L and the Superoxide dismutase ([2]; male rats, hypoxia, 0.91 mg/kg) was 196.26 ± 4.15 U/ml. For the same compound, the Total antioxidants ([2]; male rats, hypoxia, 0.91 mg/kg) was 3.17 ± 1.40 U/ml, the Malonaldehyde ([2]; male rats, hypoxia, 1.83 mg/kg) was 2.89 ± 1.09 nmol/L and the Superoxide dismutase ([2]; male rats, hypoxia, 1.83 mg/kg) was 193.38 ± 4.53 U/ml. It also gave a Total antioxidants ([2]; male rats, hypoxia, 1.83 mg/kg) of 2.77 ± 1.10 U/ml, a Malonaldehyde ([2]; male rats, hypoxia, 3.66 mg/kg) of 3.9 ± 1.39 nmol/L and a Superoxide dismutase ([2]; male rats, hypoxia, 3.66 mg/kg) of 189.59 ± 5.46 U/ml. The Total antioxidants ([2]; male rats, hypoxia, 3.66 mg/kg) was 3.81 ± 0.97 U/ml, the Malonaldehyde ([2]; male rats, hypoxia, 7.31 mg/kg) was 3.15 ± 0.99 nmol/L and the Superoxide dismutase ([2]; male rats, hypoxia, 7.31 mg/kg) was 186.20 ± 6.32 U/ml. It also gave a Total antioxidants ([2]; male rats, hypoxia, 7.31 mg/kg) of 3.62 ± 1.94 U/ml, a Malonaldehyde [2, 10] of 3.59 ± 1.15 nmol/L and a Superoxide dismutase [2, 10] of 179.58 ± 6.32 U/ml. The Total antioxidants [2, 10] was 1.49 ± 2.30 U/ml, the “start time of exhaustion swimming death” value ([3]; male mice, 6000 m) was “delayed” and the “increasing rate of survival time” value ([3]; male mice, 6000 m, 1.32 mg/kg) was 52.49%. For the same compound, the “increasing rate of survival time” value ([3]; male mice, 6000 m, 2.64 mg/kg) was 109.05%, the “increasing rate of survival time” value ([3]; male mice, 6000 m, 5.28 mg/kg) was 32.54% and the “increasing rate of survival time” value ([3]; male mice, 6000 m, 10.56 mg/kg) was 49.30%. The “increasing rate of survival time” value ([3]; male mice, 6000 m, 21.12 mg/kg) was 101.47%, the “Exhausted swimming survival time” value ([3]; male mice, 6000 m, 1.32 mg/kg) was 199.21 ± 98.54 min and the “Exhausted swimming survival time” value ([3]; male mice, 6000 m, 2.64 mg/kg) was 273.10 ± 63.07 min. The “Exhausted swimming survival time” value ([3]; male mice, 6000 m, 5.28 mg/kg) was 173.15 ± 116.32 min, the “Exhausted swimming survival time” value ([3]; male mice, 6000 m, 10.56 mg/kg) was 195.04 ± 59.81 min and the “Exhausted swimming survival time” value ([3]; male mice, 6000 m, 21.12 mg/kg) was 263.20 ± 48.27 min. For the same compound, the “time at which mice are completely dead” value ([3]; male mice, 6000 m, each PQQ dose group) was “about 400 minutes”, the “effect on survival time after exhausting swimming / working ability under hypoxia” value ([3]; mice under low oxygen exposure) was “can prolong the survival time of mice after exhausting swimming” and the “weight 1 day” value ([4]; female mice, 1.32 mg/kg) was 20.31 ± 1.29 g. The “weight 3 days” value ([4]; female mice, 1.32 mg/kg) was 22.33 ± 1.91 g, the “weight 1 day” value ([4]; female mice, 2.64 mg/kg) was 19.83 ± 1.19 g and the “weight 3 days” value ([4]; female mice, 2.64 mg/kg) was 22.22 ± 1.28 g. For the same compound, the “weight 1 day” value ([4]; female mice, 5.28 mg/kg) was 20.58 ± 1.07 g, the “weight 3 days” value ([4]; female mice, 5.28 mg/kg) was 22.52 ± 1.71 g and the “weight 1 day” value ([4]; female mice, 10.56 mg/kg) was 20.13 ± 1.64 g. The “weight 3 days” value ([4]; female mice, 10.56 mg/kg) was 21.92 ± 1.83 g, the “weight 1 day” value ([4]; female mice, 21.12 mg/kg) was 20.19 ± 1.34 g and the “weight 3 days” value ([4]; female mice, 21.12 mg/kg) was 22.49 ± 1.77 g. For the same compound, the “weight 1 day” value ([4]; male mice, 1.32 mg/kg) was 15.46 ± 1.04 g, the “weight 3 days” value ([4]; male mice, 1.32 mg/kg) was 17.74 ± 1.30 g and the “weight 1 day” value ([4]; male mice, 2.64 mg/kg) was 15.40 ± 1.03 g. For the same compound, the “weight 3 days” value ([4]; male mice, 2.64 mg/kg) was 17.46 ± 1.29 g, the “weight 1 day” value ([4]; male mice, 5.28 mg/kg) was 15.51 ± 1.11 g and the “weight 3 days” value ([4]; male mice, 5.28 mg/kg) was 17.41 ± 1.23 g. For the same compound, the “weight 1 day” value ([4]; male mice, 10.56 mg/kg) was 15.32 ± 1.10 g, the “weight 3 days” value ([4]; male mice, 10.56 mg/kg) was 16.20 ± 1.03 g and the “weight 1 day” value ([4]; male mice, 21.12 mg/kg) was 15.45 ± 0.97 g. The “weight 3 days” value ([4]; male mice, 21.12 mg/kg) was 17.54 ± 1.14 g.

From patent US20220023289A1, “Application Of Pyrroloquinoline Quinone In Preparation Of Medicament Used For Preventing And Treating Acute Altitude Sickness And Acute Altitude Hypoxia Injury” (priority 2018, published 2022)
